Experimental data published in ChEMBL document CHEMBL1687752, “Impact of antifungal prophylaxis on colonization and azole susceptibility of Candida species” (2009).
Values after ≈ are worked out from the molar mass of the structure shown.

Key:
Format in all cases: functional
[1] = test system: Nakaseomyces glabratus; assay: Antifungal activity against Candida glabrata isolated from neutropenic subject 1497 with AML or MDS pharynx receiving antifungal drug after 61 days prophylaxis by broth microdilution method
[2] = test system: Candida albicans; assay: Antifungal activity against Candida albicans isolated from neutropenic subjects with AML or MDS prior to initiation of fluconazole therapy assessed as maximum MIC by broth microdilution method
[3] = test system: Nakaseomyces glabratus; assay: Antifungal activity against 12 days cultured Candida glabrata isolated from HSCT recipient with acute or chronic GVHD mouth receiving antifungal therapy for 143 days after 116 days of prophylaxis by broth microdilution method
[4] = test system: Nakaseomyces glabratus; assay: Antifungal activity against Candida glabrata isolated from neutropenic subjects with AML or MDS prior to initiation of fluconazole therapy assessed as maximum MIC by broth microdilution method
[5] = test system: Pichia kudriavzevii; assay: Antifungal activity against 1 day cultured Candida krusei isolated from neutropenic subject with AML or MDS pharynx receiving antifungal therapy for 19 days after 6 days of prophylaxis by broth microdilution method
[6] = test system: Pichia kudriavzevii; assay: Antifungal activity against Candida krusei isolated from neutropenic subjects with AML or MDS prior to initiation of posaconazole therapy assessed as maximum MIC by broth microdilution method
[7] = test system: Candida albicans; assay: Antifungal activity against Candida albicans isolated from neutropenic subjects with AML or MDS receiving fluconazole by broth microdilution method
[8] = test system: Nakaseomyces glabratus; assay: Antifungal activity against -2 days cultured Candida glabrata isolated from HSCT recipient with acute or chronic GVHD mouth receiving antifungal therapy for 172 days after 114 days of prophylaxis by broth microdilution method
[9] = test system: Nakaseomyces glabratus; assay: Antifungal activity against 176 days cultured Candida glabrata isolated from HSCT recipient with acute or chronic GVHD mouth receiving antifungal therapy for 168 days after 113 days of prophylaxis by broth microdilution method
[10] = test system: Nakaseomyces glabratus; assay: Antifungal activity against Candida glabrata isolated from neutropenic subjects with AML or MDS receiving fluconazole assessed as maximum MIC by broth microdilution method
[11] = test system: Candida albicans; assay: Antifungal activity against Candida albicans isolated from neutropenic subjects with AML or MDS receiving posaconazole by broth microdilution method
[12] = test system: Nakaseomyces glabratus; assay: Antifungal activity against Candida glabrata isolated from neutropenic subject 1491 with AML or MDS pharynx after 23 days prophylaxis by broth microdilution method; settings: 552 h
[13] = test system: Nakaseomyces glabratus; assay: Antifungal activity against 177 days cultured Candida glabrata isolated from HSCT recipient with acute or chronic GVHD mouth receiving antifungal therapy for 172 days after 114 days of prophylaxis by broth microdilution method
[14] = test system: Nakaseomyces glabratus; assay: Antifungal activity against 60 days cultured Candida glabrata isolated from HSCT recipient with acute or chronic GVHD mouth receiving antifungal therapy for 75 days after 33 days of prophylaxis by broth microdilution method
[15] = test system: Nakaseomyces glabratus; assay: Antifungal activity against 1 day cultured Candida glabrata isolated from neutropenic subject with AML or MDS stool receiving antifungal therapy for 25 days after 3 days of prophylaxis by broth microdilution method
[16] = test system: Pichia kudriavzevii; assay: Antifungal activity against 14 days cultured Candida krusei isolated from neutropenic subject with AML or MDS pharynx after 12 days of prophylaxis by broth microdilution method
[17] = test system: Nakaseomyces glabratus; assay: Antifungal activity against 176 days cultured Candida glabrata isolated from HSCT recipient with acute or chronic GVHD mouth receiving antifungal therapy for 172 days after 114 days of prophylaxis by broth microdilution method
[18] = test system: Pichia kudriavzevii; assay: Antifungal activity against 14 days cultured Candida krusei isolated from neutropenic subject with AML or MDS stool after 12 days of prophylaxis by broth microdilution method
[19] = test system: Candida albicans; assay: Antifungal activity against 1 day cultured Candida albicans isolated from HSCT recipient with acute or chronic GVHD mouth after 2 days of prophylaxis by broth microdilution method
[20] = test system: Nakaseomyces glabratus; assay: Antifungal activity against 16 days cultured Candida glabrata isolated from HSCT recipient with acute or chronic GVHD mouth receiving antifungal therapy for 31 days after 28 days of prophylaxis by broth microdilution method
[21] = test system: Nakaseomyces glabratus; assay: Antifungal activity against Candida glabrata isolated from neutropenic subject 1318 with AML or MDS stool receiving antifungal drug after 36 days prophylaxis by broth microdilution method
[22] = test system: Nakaseomyces glabratus; assay: Antifungal activity against Candida glabrata isolated from HSCT recipients with acute or chronic GVHD receiving fluconazole by broth microdilution method
[23] = test system: Nakaseomyces glabratus; assay: Antifungal activity against 10 days cultured Candida glabrata isolated from neutropenic subject with AML or MDS stool receiving antifungal therapy for 37 days after 9 days of prophylaxis by broth microdilution method
[24] = test system: Nakaseomyces glabratus; assay: Antifungal activity against 1 day cultured Candida glabrata isolated from HSCT recipient with acute or chronic GVHD mouth after 17 days of prophylaxis by broth microdilution method
[25] = test system: Pichia kudriavzevii; assay: Antifungal activity against 13 days cultured Candida krusei isolated from invasive fungal infected subject blood after 12 days of prophylaxis by broth microdilution method
[26] = test system: Nakaseomyces glabratus; assay: Antifungal activity against 19 days cultured Candida glabrata isolated from HSCT recipient with acute or chronic GVHD mouth after 17 days of prophylaxis by broth microdilution method
[27] = test system: Nakaseomyces glabratus; assay: Antifungal activity against Candida glabrata isolated from HSCT recipient 474 with acute or chronic GVHD mouth after 124 days prophylaxis by broth microdilution method
[28] = test system: Nakaseomyces glabratus; assay: Antifungal activity against Candida glabrata isolated from HSCT recipients with acute or chronic GVHD receiving posaconazole by broth microdilution method
[29] = test system: Nakaseomyces glabratus; assay: Antifungal activity against 59 days cultured Candida glabrata isolated from HSCT recipient with acute or chronic GVHD mouth receiving antifungal therapy for 75 days after 33 days of prophylaxis by broth microdilution method
[30] = test system: Candida tropicalis; assay: Antifungal activity against -3 days cultured Candida tropicalis isolated from neutropenic subject with AML or MDS pharynx receiving antifungal therapy for 45 days after 24 days of prophylaxis by broth microdilution method
[31] = test system: Nakaseomyces glabratus; assay: Antifungal activity against Candida glabrata isolated from HSCT recipients with acute or chronic GVHD receiving posaconazole assessed as maximum MIC by broth microdilution method
[32] = test system: Nakaseomyces glabratus; assay: Antifungal activity against Candida glabrata isolated from neutropenic subject 1102 with AML or MDS stool receiving antifungal drug after 26 days prophylaxis by broth microdilution method; settings: 624 h
[33] = test system: Nakaseomyces glabratus; assay: Antifungal activity against 23 days cultured Candida glabrata isolated from neutropenic subject with AML or MDS stool receiving antifungal therapy for 25 days after 3 days of prophylaxis by broth microdilution method
[34] = test system: Nakaseomyces glabratus; assay: Antifungal activity against Candida glabrata isolated from neutropenic subject 1497 with AML or MDS pharynx after 61 days prophylaxis by broth microdilution method
[35] = test system: Nakaseomyces glabratus; assay: Antifungal activity against Candida glabrata isolated from neutropenic subjects with AML or MDS prior to initiation of posaconazole therapy assessed as maximum MIC by broth microdilution method
[36] = test system: Nakaseomyces glabratus; assay: Antifungal activity against 56 days cultured Candida glabrata isolated from HSCT recipient with acute or chronic GVHD mouth receiving antifungal therapy for 172 days after 114 days of prophylaxis by broth microdilution method
[37] = test system: Nakaseomyces glabratus; assay: Antifungal activity against 36 days cultured Candida glabrata isolated from neutropenic subject with AML or MDS pharynx after 48 days of prophylaxis by broth microdilution method
[38] = test system: Nakaseomyces glabratus; assay: Antifungal activity against Candida glabrata isolated from HSCT recipients with acute or chronic GVHD prior to initiation of posaconazole therapy assessed as maximum MIC by broth microdilution method
[39] = test system: Nakaseomyces glabratus; assay: Antifungal activity against 43 days cultured Candida glabrata isolated from HSCT recipient with acute or chronic GVHD mouth receiving antifungal therapy for 172 days after 114 days of prophylaxis by broth microdilution method

Q: Which MIC [1] does the source give for `CC[C@@H]([C@H](C)O)n1ncn(-c2ccc(N3CCN(c4ccc(OC[C@@H]5CO[C@@](Cn6cncn6)(c6ccc(F)cc6F)C5)cc4)CC3)cc2)c1=O` [POSACONAZOLE] here?
A: 4 µg/mL (≈ 5.71 µM)

Q: What about the MIC [2] of the same molecule?
A: 0.06 µg/mL

Q: What about the MIC [3] of the same molecule?
A: 2 µg/mL (≈ 2.85 µM)

Q: And the MIC [4]?
A: 8 µg/mL

Q: And the MIC [5]?
A: 0.06 µg/mL (≈ 0.0856 µM)

Q: What about the MIC [6] of the same molecule?
A: 0.25 µg/mL

Q: What about the MIC50 [7] of the same molecule?
A: 0.015 µg/mL (≈ 0.0214 µM)

Q: And the MIC90 [7]?
A: 0.015 µg/mL (≈ 0.0214 µM)

Q: And the MIC [8]?
A: 0.5 µg/mL (≈ 0.713 µM)

Q: What about the MIC [9] of the same molecule?
A: 4 µg/mL (≈ 5.71 µM)

Q: And the MIC [10]?
A: 2 µg/mL

Q: What about the MIC50 [11] of the same molecule?
A: 0.015 µg/mL (≈ 0.0214 µM)

Q: And the MIC90 [11]?
A: 0.015 µg/mL (≈ 0.0214 µM)

Q: And the MIC [12]?
A: 0.5 µg/mL (≈ 0.713 µM)

Q: What about the MIC [13] of the same molecule?
A: 1 µg/mL (≈ 1.43 µM)

Q: What about the MIC [14] of the same molecule?
A: 4 µg/mL (≈ 5.71 µM)

Q: And the MIC [15]?
A: 4 µg/mL (≈ 5.71 µM)

Q: And the MIC [16]?
A: 0.125 µg/mL (≈ 0.178 µM)

Q: And the MIC [17]?
A: 2 µg/mL (≈ 2.85 µM)

Q: What about the MIC [18] of the same molecule?
A: 0.125 µg/mL (≈ 0.178 µM)

Q: What about the MIC [19] of the same molecule?
A: < 0.03 µg/mL

Q: And the MIC [20]?
A: < 0.5 µg/mL

Q: And the MIC [21]?
A: 8 µg/mL (≈ 11.4 µM)

Q: What about the MIC50 [22] of the same molecule?
A: 2 µg/mL (≈ 2.85 µM)

Q: And the MIC90 [22]?
A: 8 µg/mL (≈ 11.4 µM)

Q: What about the MIC [23] of the same molecule?
A: 1 µg/mL (≈ 1.43 µM)

Q: And the MIC [24]?
A: > 8 µg/mL

Q: What about the MIC [25] of the same molecule?
A: 0.25 µg/mL (≈ 0.357 µM)

Q: And the MIC [26]?
A: 8 µg/mL (≈ 11.4 µM)

Q: What about the MIC [27] of the same molecule?
A: 0.25 µg/mL (≈ 0.357 µM)

Q: And the MIC50 [28]?
A: 2 µg/mL (≈ 2.85 µM)

Q: What about the MIC90 [28] of the same molecule?
A: 8 µg/mL (≈ 11.4 µM)

Q: What about the MIC [29] of the same molecule?
A: 1 µg/mL (≈ 1.43 µM)

Q: What about the MIC [30] of the same molecule?
A: < 0.015 µg/mL

Q: And the MIC [31]?
A: 8 µg/mL

Q: And the MIC [32]?
A: > 8 µg/mL

Q: What about the MIC [33] of the same molecule?
A: 0.125 µg/mL (≈ 0.178 µM)

Q: What about the MIC [34] of the same molecule?
A: 0.03 µg/mL (≈ 0.0428 µM)

Q: What about the MIC [35] of the same molecule?
A: 4 µg/mL

Q: And the MIC [36]?
A: 0.25 µg/mL (≈ 0.357 µM)

Q: And the MIC [37]?
A: 1 µg/mL (≈ 1.43 µM)

Q: And the MIC [38]?
A: 8 µg/mL

Q: What about the MIC [39] of the same molecule?
A: 1 µg/mL (≈ 1.43 µM)
